What was measured:
Type in all cases: binding
CCR1 = target: T1, CCR1 (Homo sapiens, UniProt P32246); assay: NanoBRET screen HiBiT-CCR1 in HEK293; conditions: CCR1
T1 construct: purchased Promega (in-house HiBiT-GPCR construct library, NanoBRET)
T1 sequence (P32246 1-355): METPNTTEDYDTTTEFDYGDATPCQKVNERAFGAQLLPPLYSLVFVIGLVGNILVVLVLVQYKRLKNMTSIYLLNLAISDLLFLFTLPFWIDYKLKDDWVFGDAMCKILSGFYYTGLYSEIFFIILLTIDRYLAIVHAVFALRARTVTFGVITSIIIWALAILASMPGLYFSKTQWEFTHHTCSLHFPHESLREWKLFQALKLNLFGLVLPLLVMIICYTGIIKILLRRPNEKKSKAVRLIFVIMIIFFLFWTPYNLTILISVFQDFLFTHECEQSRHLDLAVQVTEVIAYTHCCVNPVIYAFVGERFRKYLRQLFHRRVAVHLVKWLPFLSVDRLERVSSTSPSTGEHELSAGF
Procedure: (§1) Each tracer candidate was screened across the entire library of HiBiT-GPCR constructs using NanoBRET as the detection modality. As depicted in Figure 4A, the specificity of interactions was evaluated through decrease in BRET due to competitive displacement of a bound tracer by excess parental compound. Each tracer was analyzed for binding to each HiBiT-GPCR fusion in the absence and in the presence of competing parental compound. Briefly, HEK293 cells were transfected with HiBiT-GPCR constructs diluted into promoterless DNA to reduce expression and maximize translocation to the cell surface. Each tracer candidate was then screened at concentrations of 1 μM and 0.1 μM across cells expressing these fusions. Cells were treated for 1.5 h with tracer either alone or in the presence of 20 μM competing parental compound (i.e., control). BRET was measured upon addition of purified LgBiT and subsequent complementation with HiBiT genetically fused to a GPCR. The specificity of interactions was assessed through a decrease in BRET signal due to competitive displacement of the bound tracer. To further gauge the robustness of these interactions, the fold response over the control (i.e., BRETtracer/BRETcontrol) was calculated. We chose a 1.5-fold response, which translates to ≥7-fold signal over noise as the minimal threshold required to score an interaction as positive. […]. Below we highlight the screening results obtained for our exemplary fluorescent tracers based on Clozapine, Amitriptyline and AZD1283.
(§2) HiBiT-GPCR DNA constructs were diluted in 10 mM Tris pH 8 to a final concentration of 0.01 μg/μL, arrayed in 96-well plates and stored at −20 °C. For transfection, HEK293 cells were suspended in Opti-MEM (without phenol red) supplemented with 2% fetal bovine serum (Seradigm) and 100 units/mL penicillin–streptomycin (Gibco) at a final concentration of 220,000 cells/mL and dispensed into white 96-well plates at 90 μL/well. Subsequent transfections and screens were carried using an Agilent Bravo Automated Liquid Handling Platform. First, the 96-well HiBiT DNA arrays were diluted 25-fold in Opti-MEM (without serum or phenol red) to a final concentration of 0.0004 μg/μL and 20 μL of the diluted DNAs were transferred into new 96-well plates. Next, promoterless carrier DNA (1 μg/μL) was diluted 25-fold (0.04 μg/μL) and then dispensed into the diluted arrays at 20 μL/well. Following brief mixing, Viafect transfection reagent (Promega) diluted 16-fold into Opti-MEM was dispensed into the plates at 40 μL/well. After mixing by pipetting, plates were incubated for 10 min on the pipetting station deck. The DNA-transfection reagent complexes were then added to plates containing cells. To facilitate the screen, 10 μL of DNA-transfection reagent complexes were added in duplicates to the top 4 and bottom 4 rows, resulting in two identical 48-well arrays per plate. Plates with transfected cells were incubated for 18–20 h at 37 °C/5% CO2. A screen of each tracer across the entire library using two different concentrations requires duplicate plates of transfected cells. Depending on the number of tracers being screened, transfections can be scaled up using the same ratios. The next day, for each tracer, four 20× screening solutions in tracer dilution buffer (Promega) were prepared: two duplicates at final concentration of 20 μM and two duplicates at a final concentration of 2 μM. A competing unmodified compound was added to one of each duplicate at a final concentration of 400 μM. The four resulting solutions were diluted 4-fold in Opti-MEM without serum or phenol red to generate 5× solutions (5 µM and 0.5 µM tracer +/− 100 μM competing compound). To screen the library, a BioTek MultiFlo FX liquid dispenser was used to dispense 22.5 µL of tracer solution to the top 4 rows and 22.5 µL tracer + competing compound solution to the 4 bottom rows. Plates were briefly mixed on an orbital shaker and incubated for 1.5 h at room temperature. […]

P2RY1 = target: T2, P2RY1 (Homo sapiens, UniProt P47900); assay: NanoBRET screen HiBiT-P2RY1 in HEK293; conditions: P2RY1
T2 construct: purchased Promega (in-house HiBiT-GPCR construct library, NanoBRET)
Procedure: as §1, §2

BRS3 = target: T3, BRS3 (Homo sapiens, UniProt P32247); assay: NanoBRET screen HiBiT-BRS3 in HEK293; conditions: BRS3
T3 construct: purchased Promega (in-house HiBiT-GPCR construct library, NanoBRET)
T3 sequence (P32247 1-399): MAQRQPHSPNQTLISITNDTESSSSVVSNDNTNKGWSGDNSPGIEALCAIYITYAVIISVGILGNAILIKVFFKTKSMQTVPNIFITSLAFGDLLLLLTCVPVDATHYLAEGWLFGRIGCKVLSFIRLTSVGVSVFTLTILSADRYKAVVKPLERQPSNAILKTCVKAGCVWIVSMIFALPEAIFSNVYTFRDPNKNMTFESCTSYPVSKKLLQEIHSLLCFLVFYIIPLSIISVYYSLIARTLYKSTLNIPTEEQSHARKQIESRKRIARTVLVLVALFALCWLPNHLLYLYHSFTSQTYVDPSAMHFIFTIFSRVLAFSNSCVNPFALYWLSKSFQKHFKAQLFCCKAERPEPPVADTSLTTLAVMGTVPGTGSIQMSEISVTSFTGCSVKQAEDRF
Procedure: as §1, §2

GRM4 = target: T4, GRM4 (Homo sapiens, UniProt Q14833); assay: NanoBRET screen HiBiT-GRM4 in HEK293; conditions: GRM4
T4 construct: purchased Promega (in-house HiBiT-GPCR construct library, NanoBRET)
Procedure: as §1, §2

T2 sequence (P47900 whole entry): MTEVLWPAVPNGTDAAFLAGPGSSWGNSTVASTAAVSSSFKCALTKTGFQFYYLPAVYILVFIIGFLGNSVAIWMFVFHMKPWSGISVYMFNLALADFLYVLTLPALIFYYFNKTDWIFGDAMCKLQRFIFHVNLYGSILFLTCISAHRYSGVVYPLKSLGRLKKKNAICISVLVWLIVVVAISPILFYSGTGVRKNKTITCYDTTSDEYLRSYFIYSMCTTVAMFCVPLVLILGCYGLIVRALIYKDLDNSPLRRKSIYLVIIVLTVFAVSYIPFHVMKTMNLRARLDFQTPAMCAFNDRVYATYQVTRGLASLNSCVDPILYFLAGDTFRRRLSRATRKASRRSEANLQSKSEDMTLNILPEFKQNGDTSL
T4 sequence (Q14833 33-912): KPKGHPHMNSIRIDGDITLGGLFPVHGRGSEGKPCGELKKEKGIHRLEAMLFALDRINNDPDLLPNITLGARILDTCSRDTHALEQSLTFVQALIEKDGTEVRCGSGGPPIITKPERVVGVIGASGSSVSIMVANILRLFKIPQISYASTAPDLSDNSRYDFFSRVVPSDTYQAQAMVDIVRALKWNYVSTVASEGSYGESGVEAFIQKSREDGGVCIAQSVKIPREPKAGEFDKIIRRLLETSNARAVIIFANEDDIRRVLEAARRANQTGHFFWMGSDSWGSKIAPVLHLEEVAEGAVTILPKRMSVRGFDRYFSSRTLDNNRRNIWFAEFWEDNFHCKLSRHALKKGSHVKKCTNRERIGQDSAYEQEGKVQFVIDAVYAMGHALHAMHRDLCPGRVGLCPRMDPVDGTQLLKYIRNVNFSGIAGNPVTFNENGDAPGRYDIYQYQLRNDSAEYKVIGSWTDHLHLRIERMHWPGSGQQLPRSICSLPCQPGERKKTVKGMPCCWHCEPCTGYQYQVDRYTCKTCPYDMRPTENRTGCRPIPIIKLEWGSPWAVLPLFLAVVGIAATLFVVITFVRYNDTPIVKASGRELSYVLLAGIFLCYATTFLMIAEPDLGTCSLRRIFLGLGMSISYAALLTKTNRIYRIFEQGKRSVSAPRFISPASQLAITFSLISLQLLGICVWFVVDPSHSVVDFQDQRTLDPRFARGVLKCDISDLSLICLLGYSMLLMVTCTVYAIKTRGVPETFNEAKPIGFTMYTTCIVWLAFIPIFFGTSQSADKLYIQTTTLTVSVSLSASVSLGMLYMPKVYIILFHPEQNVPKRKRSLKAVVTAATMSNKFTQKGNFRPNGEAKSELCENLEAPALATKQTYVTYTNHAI

Compound	NanoBRET Fold Response (CCR1; tracer 0.1μM)	NanoBRET Fold Response (CCR1; tracer 1μM)	NanoBRET Fold Response (P2RY1; tracer 0.1μM)	NanoBRET Fold Response (P2RY1; tracer 1μM)	NanoBRET Fold Response (BRS3; tracer 0.1μM)	NanoBRET Fold Response (BRS3; tracer 1μM)	NanoBRET Fold Response (GRM4; tracer 0.1μM)	NanoBRET Fold Response (GRM4; tracer 1μM)	NanoBRET Fold Response (CCR1; 0.1μM)	NanoBRET Fold Response (CCR1; 1μM)	NanoBRET Fold Response (P2RY1; 0.1μM)	NanoBRET Fold Response (P2RY1; 1μM)	NanoBRET Fold Response (BRS3; 0.1μM)	NanoBRET Fold Response (BRS3; 1μM)	NanoBRET Fold Response (GRM4; 0.1μM)	NanoBRET Fold Response (GRM4; 1μM)
COc1ccccc1N1CCN(CCCCN2C(=O)c3ccc(CNC(=O)CCOCCNC(=O)c4ccc(CNC(=O)CCc5ccc6n5[B-](F)(F)[N+]5=C(c7ccc[nH]7)C=CC5=C6)cc4)cc3C2=O)CC1 [NAN-190-3-NB590]	1.04	0.89	0.97	1.00	0.95	1.02	1.14	1.33	–	–	–	–	–	–	–	–
O=C(CCc1ccc2n1[B-](F)(F)[N+]1=C(c3ccc[nH]3)C=CC1=C2)NCc1ccc(C(=O)NCCOCCC(=O)N[C@@H]2CC[C@@]3(O)[C@H]4Cc5ccc(O)c6c5[C@@]3(CCN4CC3CC3)[C@H]2O6)cc1 [Naltrexone-3-NB590]	1.03	0.66	0.86	0.95	1.05	0.94	0.75	1.05	–	–	–	–	–	–	–	–
Cc1cc2c(s1)Nc1ccccc1N=C2N1CCN(CCCNC(=O)CCOCCOCCOCCOCCNC(=O)CCc2ccc3n2[B-](F)(F)[N+]2=C(c4ccc[nH]4)C=CC2=C3)CC1 [Olanzapine-a-2-NB590]	1.02	0.98	0.97	0.95	1.01	1.05	0.99	0.93	–	–	–	–	–	–	–	–
O=C(CCc1ccc2n1[B-](F)(F)[N+]1=C(c3ccc[nH]3)C=CC1=C2)NCc1ccc(C(=O)NCCOCCOCCNCC(O)COc2cccc3ccccc23)cc1 (stereo not drawn) [Propranolol-3-NB590]	–	–	–	–	–	–	–	–	1.03	0.97	1.02	0.97	1.03	1.08	1.11	1.04
O=C(CCc1ccc2n1[B-](F)(F)[N+]1=C(c3ccc[nH]3)C=CC1=C2)NCCOCCOCCNC(=O)OCCOCCN1CCN(C2=Nc3ccccc3Sc3ccccc32)CC1 [Quetiapine-a-2-NB590]	0.99	0.99	1.00	1.01	0.96	0.98	0.99	0.92	–	–	–	–	–	–	–	–
Cc1nc2n(c(=O)c1CCN1CCC(c3noc4cc(F)ccc34)CC1)CCCC2OC(=O)NCCOCCOCCOCCOCCNC(=O)CCc1ccc2n1[B-](F)(F)[N+]1=C(c3ccc[nH]3)C=CC1=C2 (stereo not drawn) [Risperidone-2-NB590]	1.00	0.99	0.98	0.97	0.95	0.98	0.98	1.05	–	–	–	–	–	–	–	–
CC(C)N(CC[C@H](c1ccccc1)c1cc(CCNC(=O)CCOCCOCCOCCOCCNC(=O)CCc2ccc3n2[B-](F)(F)[N+]2=C(c4ccc[nH]4)C=CC2=C3)ccc1O)C(C)C [Tolterodine-2-NB590]	0.97	0.94	0.97	1.00	1.02	1.04	0.97	1.14	–	–	–	–	–	–	–	–
CC(C)N(CC[C@H](c1ccccc1)c1cc(CCNC(=O)c2ccc(CNC(=O)CCc3ccc4n3[B-](F)(F)[N+]3=C(c5ccc[nH]5)C=CC3=C4)cc2)ccc1O)C(C)C [Tolterodine-BZ-NB590]	1.09	0.96	1.43	1.03	0.89	1.09	1.02	0.99	–	–	–	–	–	–	–	–
CCCn1c(=O)c2[nH]c(-c3ccc(OCC(=O)NCCNC(=O)CCOCCNC(=O)c4ccc(CNC(=O)CCc5ccc6n5[B-](F)(F)[N+]5=C(c7ccc[nH]7)C=CC5=C6)cc4)cc3)nc2n(CCC)c1=O [XAC-3-NB590]	0.83	1.09	1.05	0.96	0.95	1.04	1.03	1.07	–	–	–	–	–	–	–	–

Reference: publication PMC8151276, “An Integrated Approach toward NanoBRET Tracers for Analysis of GPCR Ligand Engagement” (Molecules, 2021)
